Source: ChEMBL document CHEMBL3593172, “4-(N-Phenyl-N'-substituted benzenesulfonyl)-6-(4-hydroxyphenyl)quinolines as inhibitors of mammalian target of rapamycin” (Bioorg Med Chem, 2015)
Activity calls are given as the source filed them. The calls are words filed in the database; no cut-off is given here.

How the values were obtained:
[1] = molecular target: Serine/threonine-protein kinase mTOR (Homo sapiens) (UniProt P42345); assay: Inhibition of mTOR (unknown origin) assessed as p70S6K phosphorylation after 30 mins by ELISA
PC-3 [2] = assay: cells; settings: Homo sapiens, PC-3, 48 h
Description: Cytotoxicity against human PC3 cells assessed as inhibition of cell proliferation after 48 hrs by MTT assay

[3] = Disruption of mitochondrial membrane potential in human MIAPaCa2 cells at 20 uM after 24 hrs by Rh123 dye-based flow cytometric analysis (reference value: 6%); assay type: functional, MIA PaCa-2
[4] = Cytotoxicity against human MIAPaCa2 cells assessed as growth inhibition at 10 uM after 24 to 48 hrs by MTT assay relative to control; assay type: functional; settings: MIA PaCa-2, read-out: GI
HL-60 [5] = assay: Cytotoxicity against human HL60 cells assessed as growth inhibition at 30 uM after 24 to 48 hrs by MTT assay relative to control; assay type: functional; settings: read-out: GI
MIA PaCa-2 [6] = assay: Effect on mTORC2 complex in human MIAPaCa2 cells assessed as p-Akt phosphorylation at S473 at 5 to 10 uM measured at 2 hrs by Western blot analysis; assay type: cell-based
HL-60 [7] = assay: cells; settings: Homo sapiens, HL-60, 48 h
Description: Cytotoxicity against human HL60 cells assessed as inhibition of cell proliferation after 48 hrs by MTT assay

HepG2 [8] = assay: Cytotoxicity against human HepG2 cells assessed as growth inhibition at 30 uM after 24 to 48 hrs by MTT assay relative to control; assay type: functional; settings: read-out: GI
PC-3 [9] = assay: Cytotoxicity against human PC3 cells assessed as growth inhibition at 10 uM after 24 to 48 hrs by MTT assay relative to control; assay type: functional; settings: read-out: GI
HepG2 [10] = assay: Cytotoxicity against human HepG2 cells assessed as growth inhibition at 10 uM after 24 to 48 hrs by MTT assay relative to control; assay type: functional; settings: read-out: GI
PC-3 [11] = assay: Cytotoxicity against human PC3 cells assessed as growth inhibition at 100 uM after 24 to 48 hrs by MTT assay relative to control; assay type: functional; settings: read-out: GI
MIA PaCa-2 [12] = assay: Effect on P110alpha expression in human MIAPaCa2 cells at 5 to 10 uM measured after 2 to 4 hrs by Western blot analysis; assay type: functional, cell-based
cells = settings: Homo sapiens, MIA PaCa-2, 48 h
Description: Cytotoxicity against human MIAPaCa2 cells assessed as inhibition of cell proliferation after 48 hrs by MTT assay

[13] = Cell cycle arrest in human MIAPaCa2 cells after 24 hrs by propidium iodide staining-based flow cytometric analysis; assay type: functional; settings: MIA PaCa-2
HCT-116 [14] = assay: Cytotoxicity against human HCT116 cells assessed as growth inhibition at 30 uM after 24 to 48 hrs by MTT assay relative to control; assay type: functional; settings: read-out: GI
[15] = Cell cycle arrest in human MIAPaCa2 cells assessed as accumulation at G1 phase at 30 uM after 24 hrs by propidium iodide staining-based flow cytometric analysis (reference value: 51%); assay type: functional; settings: MIA PaCa-2
HepG2 [16] = assay: Cytotoxicity against human HepG2 cells assessed as growth inhibition at 100 uM after 24 to 48 hrs by MTT assay relative to control; assay type: functional; settings: read-out: GI
[17] = Cytotoxicity against human MIAPaCa2 cells assessed as growth inhibition at 30 uM after 24 to 48 hrs by MTT assay relative to control; assay type: functional; settings: MIA PaCa-2, read-out: GI
[18] = Disruption of mitochondrial membrane potential in human MIAPaCa2 cells at 10 uM after 24 hrs by Rh123 dye-based flow cytometric analysis (reference value: 6%); assay type: functional, MIA PaCa-2
HL-60 [19] = assay: Cytotoxicity against human HL60 cells assessed as growth inhibition at 100 uM after 24 to 48 hrs by MTT assay relative to control; assay type: functional; settings: read-out: GI
[20] = Cell cycle arrest in human MIAPaCa2 cells assessed as accumulation at G2 phase at 10 uM after 24 hrs by propidium iodide staining-based flow cytometric analysis (reference value: 5%); assay type: functional; settings: MIA PaCa-2
HL-60 [21] = assay: Cytotoxicity against human HL60 cells assessed as growth inhibition at 10 uM after 24 to 48 hrs by MTT assay relative to control; assay type: functional; settings: read-out: GI
[22] = Cell cycle arrest in human MIAPaCa2 cells assessed as accumulation at S phase at 30 uM after 24 hrs by propidium iodide staining-based flow cytometric analysis (reference value: […]%); assay type: functional; settings: MIA PaCa-2
[23] = Cell cycle arrest in human MIAPaCa2 cells assessed as apoptotic cells at 10 uM after 24 hrs by propidium iodide staining-based flow cytometric analysis (reference value: 0.1%); assay type: functional; settings: MIA PaCa-2
[24] = Disruption of mitochondrial membrane potential in human MIAPaCa2 cells at 30 uM after 24 hrs by Rh123 dye-based flow cytometric analysis (reference value: 6%); assay type: functional, MIA PaCa-2
[25] = Cell cycle arrest in human MIAPaCa2 cells assessed as accumulation at G1 phase at 20 uM after 24 hrs by propidium iodide staining-based flow cytometric analysis (reference value: 51%); assay type: functional; settings: MIA PaCa-2
[26] = Cell cycle arrest in human MIAPaCa2 cells assessed as apoptotic cells at 30 uM after 24 hrs by propidium iodide staining-based flow cytometric analysis (reference value: 0.1%); assay type: functional; settings: MIA PaCa-2
[27] = Cell cycle arrest in human MIAPaCa2 cells assessed as accumulation at G2 phase at 20 uM after 24 hrs by propidium iodide staining-based flow cytometric analysis (reference value: 5%); assay type: functional; settings: MIA PaCa-2
HCT-116 [28] = assay: Cytotoxicity against human HCT116 cells assessed as growth inhibition at 10 uM after 24 to 48 hrs by MTT assay relative to control; assay type: functional; settings: read-out: GI
[29] = Cell cycle arrest in human MIAPaCa2 cells assessed as accumulation at S phase at 20 uM after 24 hrs by propidium iodide staining-based flow cytometric analysis (reference value: […]%); assay type: functional; settings: MIA PaCa-2
[30] = Cell cycle arrest in human MIAPaCa2 cells assessed as accumulation at G2 phase at 30 uM after 24 hrs by propidium iodide staining-based flow cytometric analysis (reference value: 5%); assay type: functional; settings: MIA PaCa-2
HCT-116 [31] = assay: cells; settings: Homo sapiens, HCT-116, 48 h
Description: Cytotoxicity against human HCT116 cells assessed as inhibition of cell proliferation after 48 hrs by MTT assay

HepG2 [32] = assay: cells; settings: Homo sapiens, HepG2, 48 h
Description: Cytotoxicity against human HepG2 cells assessed as inhibition of cell proliferation after 48 hrs by MTT assay

[33] = Cell cycle arrest in human MIAPaCa2 cells assessed as accumulation at S phase at 10 uM after 24 hrs by propidium iodide staining-based flow cytometric analysis (reference value: […]%); assay type: functional; settings: MIA PaCa-2
PC-3 [34] = assay: Cytotoxicity against human PC3 cells assessed as growth inhibition at 30 uM after 24 to 48 hrs by MTT assay relative to control; assay type: functional; settings: read-out: GI
[35] = Cytotoxicity against human MIAPaCa2 cells assessed as growth inhibition at 100 uM after 24 to 48 hrs by MTT assay relative to control; assay type: functional; settings: MIA PaCa-2, read-out: GI
[36] = Cell cycle arrest in human MIAPaCa2 cells assessed as accumulation at G1 phase at 10 uM after 24 hrs by propidium iodide staining-based flow cytometric analysis (reference value: 51%); assay type: functional; settings: MIA PaCa-2
[37] = Cell cycle arrest in human MIAPaCa2 cells assessed as apoptotic cells at 20 uM after 24 hrs by propidium iodide staining-based flow cytometric analysis (reference value: 0.1%); assay type: functional; settings: MIA PaCa-2
HCT-116 [38] = assay: Cytotoxicity against human HCT116 cells assessed as growth inhibition at 100 uM after 24 to 48 hrs by MTT assay relative to control; assay type: functional; settings: read-out: GI

`COC[C@H]1OC(=O)c2coc3c2[C@@]1(C)C1=C(C3=O)[C@@H]2CCC(=O)[C@@]2(C)C[C@H]1OC(C)=O` showed an inhibition [1] of 100%.

Work on `CC(=O)Nc1ccc(S(=O)(=O)N(c2ccccc2)c2ccnc3ccc(-c4ccc(O)cc4)cc23)cc1` yielded an IC50 (PC-3 [2]) of 75 µM, an Activity [3] of 23% and an inhibition of growth at 10 µM [4] of 64%. The inhibition of growth at 30 µM (HL-60 [5]) was 93%, the Activity (MIA PaCa-2 [6]) was “inactive” and the IC50 (HL-60 [7]) was 16 µM. For the same molecule, the inhibition of growth at 30 µM (HepG2 [8]) was 83%, the inhibition of growth at 10 µM (PC-3 [9]) was 12% and the inhibition of growth at 10 µM (HepG2 [10]) was 5%. The inhibition of growth at 100 µM (PC-3 [11]) was 25%, the Activity (MIA PaCa-2 [12]) was “inactive” and the IC50 (cells) was 7 µM. For the same molecule, the Activity [13] was “Dose-dependent effect”, the inhibition of growth at 30 µM (HCT-116 [14]) was 25% and the Activity [15] was 67%. The inhibition of growth at 100 µM (HepG2 [16]) was 87%, the inhibition of growth at 30 µM [17] was 89% and the Activity [18] was 13%. The inhibition of growth at 100 µM (HL-60 [19]) was 94%, the Activity [20] was 19% and the inhibition of growth at 10 µM (HL-60 [21]) was 25%. It also gave an Activity [22] of 19%, an Activity [23] of 1% and an Activity [24] of 42%. The Activity [25] was 66%, the Activity [26] was 6% and the Activity [27] was 13%. The inhibition of growth at 10 µM (HCT-116 [28]) was 19%, the Activity [29] was 21% and the Activity [30] was 15%. The IC50 (HCT-116 [31]) was under 100 µM, the IC50 (HepG2 [32]) was 22 µM and the Activity [33] was 22%. The inhibition of growth at 30 µM (PC-3 [34]) was 14%, the inhibition of growth at 100 µM [35] was 89% and the Activity [36] was 59%. The Activity [37] was 1% and the inhibition of growth at 100 µM (HCT-116 [38]) was 29%.

`O=S(=O)(c1ccc(Br)cc1)N(c1ccccc1)c1ccnc2ccc(-c3ccc(O)cc3)cc12` showed an IC50 (PC-3 [2]) of over 100 µM, an inhibition of growth at 10 µM [4] of 27% and an inhibition of growth at 30 µM (HL-60 [5]) of 88%. For the same molecule, the IC50 (HL-60 [7]) was under 10 µM, the inhibition of growth at 30 µM (HepG2 [8]) was 73% and the inhibition of growth at 10 µM (PC-3 [9]) was 15%. The inhibition of growth at 10 µM (HepG2 [10]) was 1%, the inhibition of growth at 100 µM (PC-3 [11]) was 25% and the IC50 (cells) was 20 µM. It also gave an inhibition of growth at 30 µM (HCT-116 [14]) of 23%, an inhibition of growth at 100 µM (HepG2 [16]) of 80% and an inhibition of growth at 30 µM [17] of 76%. The inhibition of growth at 100 µM (HL-60 [19]) was 87%, the inhibition of growth at 10 µM (HL-60 [21]) was 69% and the inhibition of growth at 10 µM (HCT-116 [28]) was 9%. The IC50 (HCT-116 [31]) was 68 µM, the IC50 (HepG2 [32]) was 22 µM and the inhibition of growth at 30 µM (PC-3 [34]) was 28%. It also gave an inhibition of growth at 100 µM [35] of 81% and an inhibition of growth at 100 µM (HCT-116 [38]) of 73%.
